We go through 6 compounds from paper PMC8066774, “Binding and Action of Triphenylphosphonium Analog of Chloramphenicol upon the Bacterial Ribosome” (Antibiotics, 2021).

Assay [1] deals with E. coli BW25113 ΔtolC pDualRep2 reporter strain. Kind of assay: In vivo dual-reporter (pDualrep2) assay on agar plate: Katushka2S / RFP induction and growth inhibition zone. It counts as cell-based. Conditions: overnight 37 °C; for Induction of fluorescent reporters (Katushka2S = ribosome stalling; RFP = DNA damage/SOS response): drops of DMSO solutions (CAM-C4-TPP 20 mM, C4-TPP 20 mM, CAM 2 mM, CHL 2 mM, ERY 6.8 mM, LEV 69 nM). The source says: Since CAM-C4-TPP is a semi-synthetic analog of the PTC-targeting antibiotic CHL, we expected that, similar to CHL, CAM-C4-TPP would also bind and act upon the bacterial ribosome inhibiting protein synthesis. However, we could not rule out the possibility that the presence of the additional TPP group could alter the intracellular target of the CAM-C4-TPP molecule. To check whether protein synthesis remains the primary target of CAM-C4-TPP action in the bacterial cells, we used an E. coli-based in vivo reporter system that is designed for screening of inhibitors targeting either DNA replication or protein synthesis.
(§1) Figure 2 CAM-C4-TPP is a potent inhibitor of protein synthesis both in vivo and in vitro. (A) In vivo testing of CAM-C4-TPP activity using E. coli BW25113 ΔtolC pDualRep2 reporter strains. The induction of the red fluorescent protein (RFP) expression (green halo around the inhibition zone) is triggered by DNA-damage, while the induction of Katushka2S protein (red halo) occurs in response to ribosome stalling. Levofloxacin (LEV), erythromycin (ERY), and chloramphenicol (CHL) are used as controls. This image is an overlay of the two images from the independent detections of RFP (Cy3 mode) or Ktushka2S (Cy5 mode) by ChemiDoc MP (Bio-Rad) with RFP fluorescence shown in green pseudocolor and Katushka2S fluorescence shown in red pseudocolor. (B,C) Competition-binding assay to test the displacement of fluorescently labeled BODIPY-CAM (B) or BODIPY-ERY (C) analogs from the E. coli 70S ribosomes in the presence of increasing concentrations of CAM (open diamonds), CHL (blue squares), or CAM-C4-TPP (red circles) measured by fluorescence anisotropy. All reactions were repeated three times. Error bars represent standard deviation. ND, no displacement. The resulting values for apparent dissociation constants (KDapp) are shown on each plot. (D) Inhibition of protein synthesis by increasing concentrations of CHL (blue squares) or CAM-C4-TPP (red circles) in the in vitro cell-free transcription-translation coupled system. The relative enzymatic activity of in vitro synthesized firefly luciferase is shown. Error-bars represent standard deviations of the mean of three independent measurements. TEXT PRINTED IN THE PICTURE: (D) CHL: IC50, μM: 2.8±0.5 | (D) CAM-C4-TPP: IC50, μM: 0.9±0.2 | (B) CAM: KDApp, μM: 420±240 | (B) CHL: KDApp, μM: 2.6±1.5 | (B) CAM-C4-TPP: KDApp, μM: 0.6±0.4 | (C) CAM: KDApp, μM: ND | (C) CHL: KDApp, μM: 2.8±0.5 | (C) CAM-C4-TPP: KDApp, μM: 0.61±0.07
For the in vivo bioactivity test (Figure 2A), we used the reporter strain BW25113ΔtolC-pDualrep2 as described previously. Briefly, 1.5 µL of the solutions of CAM-C4-TPP (20 mM), C4-TPP (20 mM), CAM (2 mM), and 1 µL of the solutions of CHL (2 mM), erythromycin (ERY, 6.8 mM), and levofloxacin (LEV, 69 nM) in DMSO were applied onto the agar plate that already contained a lawn of the reporter strain. After overnight incubation at 37 °C, the plate was scanned by ChemiDoc (Bio-Rad, USA) using “Cy3-blot” mode for RFP fluorescence and “Cy5-blot” mode for Katushka2S fluorescence.

Assay [2] has as its system E. coli 70S ribosomes. Briefly: Competition-binding assay, displacement of BODIPY-CAM measured by fluorescence anisotropy. Conditions: for Kd: BODIPY-CAM 30 nM, ribosomes 2.9 µM, 25 °C, pH 7.5, n=3, read-out: Apparent dissociation constant KDapp, displacement of BODIPY-CAM. The source says: (§2) Figure 2 CAM-C4-TPP is a potent inhibitor of protein synthesis both in vivo and in vitro. (A) In vivo testing of CAM-C4-TPP activity using E. coli BW25113 ΔtolC pDualRep2 reporter strains. The induction of the red fluorescent protein (RFP) expression (green halo around the inhibition zone) is triggered by DNA-damage, while the induction of Katushka2S protein (red halo) occurs in response to ribosome stalling. Levofloxacin (LEV), erythromycin (ERY), and chloramphenicol (CHL) are used as controls. This image is an overlay of the two images from the independent detections of RFP (Cy3 mode) or Ktushka2S (Cy5 mode) by ChemiDoc MP (Bio-Rad) with RFP fluorescence shown in green pseudocolor and Katushka2S fluorescence shown in red pseudocolor. (B,C) Competition-binding assay to test the displacement of fluorescently labeled BODIPY-CAM (B) or BODIPY-ERY (C) analogs from the E. coli 70S ribosomes in the presence of increasing concentrations of CAM (open diamonds), CHL (blue squares), or CAM-C4-TPP (red circles) measured by fluorescence anisotropy. […]
The amphenicol moieties of CAM-C4-TPP, its parent CHL, and the fluorescent derivative BODIPY-CAM are expected to have identical ribosome binding sites and, therefore, these compounds are expected to compete with each other for binding to the ribosome. […] The apparent dissociation constants KDapp of CHL determined from the displacement of BODIPY-CAM (2.6 ± 1.5 µM) or BODIPY-ERY (2.8 ± 0.5 µM) are consistent with each other and with the previously published data, including data determined by direct [^14C]-CHL binding (2.3 µM [30]). […]
(§3) Binding affinities of CHL analog CAM-C4-TPP, as well as other tested compounds, for the E. coli ribosome (Figure 2B,C) were analyzed by a competition-binding assay using fluorescently labeled BODIPY-CAM or BODIPY-ERY as described before. […]
Solutions of CHL, CAM, CAM-C4-TPP, or C4-TPP in different concentration ranges were added to the pre-formed ribosome/BODIPY-CAM or ribosome/BODIPY-ERY complexes. The mixtures were incubated for 2 h until equilibrium was reached and the values of fluorescence anisotropy were measured. […]

Assay [3] concerns E. coli 70S ribosomes. Kind of assay: Competition-binding assay, displacement of BODIPY-ERY measured by fluorescence anisotropy. As to conditions: BODIPY-ERY 16 nM, ribosomes 50 nM, 25 °C, pH 7.5, n=3; read-out: Apparent dissociation constant KDapp, displacement of BODIPY-ERY.
Description: as §2, with “anisotropy. All reactions were repeated three times. Error bars represent standard deviation. ND, no displacement.” for “anisotropy.”
as §3

The test system of assay [4] is cell-free transcription-translation system based on the E. coli S30 extract. Kind of assay: In vitro cell-free transcription-translation inhibition assay, firefly luciferase synthesis. It counts as biochemical. Conditions: for IC50 / Concentration at which nearly complete inhibition of protein synthesis was observed: E. coli S30 extract; for IC50: 37 °C, 30 min, n=3; for Concentration at which nearly complete inhibition of protein synthesis was observed: firefly luciferase.
Description: as §1
To check whether the improved binding of CAM-C4-TPP to the ribosome correlates with stronger inhibition of translation, we tested its ability to interfere with in vitro protein synthesis. […] Thus, CAM-C4-TPP provides a promising foundation for future ribosome-targeting drug development.
In vitro assessment of inhibition of synthesis of firefly luciferase by the tested compounds (Figure 2D) was accomplished as described previously. Briefly, the in vitro transcribed firefly luciferase mRNA was translated using E. coli S30 Extract System for Linear Templates (Promega, USA). Reactions containing 100 ng of mRNA and […] 0.1 mM of D-luciferin from the Steady-Glo Luciferase Assay System (Promega) were preincubated for 5 min with different concentrations (0.5 µM, 1 µM, 5 µM, 10 µM, 30 µM, 50 µM, 100 µM) of the tested compounds and carried out in 5-µL aliquots at 37 °C for 30 min. The activity of in vitro synthesized luciferase was measured by VICTOR X5 Multilabel Plate Reader (Perkin Elmer, USA) every 30 s. Calculations of the IC50 values for the tested compounds were carried out using GraphPad Prism software.

The subject of assay [5] is ribosome stalling on rst1 and rst2 mRNAs. Kind of assay: Toe-printing (primer extension inhibition) on rst1 and rst2 mRNAs in a cell-free translation system. Conditions: 30 µM compound. In kind it is biochemical. The source says: The inhibition of protein synthesis by the PTC-targeting antibiotics depends on the amino-acid sequence of the nascent polypeptide chain and the identity of the incoming aminoacyl-tRNA in the A site of the ribosome. For example, CHL arrests translation only when alanine, and to a lesser extent, serine or threonine appear in the penultimate position (E site) of the growing polypeptide chain and only if there is no glycyl-tRNA in the A site of the ribosome. […] This method allows unambiguous identification of the drug-induced ribosome stalling site along the mRNA with a single nucleotide precision. This technique also allows for the determination of the context-specificity of drug action. A large set of ribosome-targeting antibiotics has been previously tested by toe-printing using rst1 or rst2 mRNAs as templates, because their sequences contain codons for almost all proteinogenic amino acids. Therefore, in order to be able to directly compare our results for CAM-C4-TPP with those for other antibiotics, we have chosen exactly the same experimental system.
Nevertheless, in the presence of CAM-C4-TPP, a fraction of ribosomes manages to escape the start codon, continues translation, and stalls at later codons within the ORF (Figure 6A,B, lanes 3 and 6).
Figure 6 CAM-C4-TPP is capable of arresting translation at the start codon. […]

Assay [6] relates to E. coli 70S ribosomes. Kind of assay: Direct equilibrium binding of BODIPY-CAM measured by fluorescence anisotropy. As to conditions: BODIPY-CAM 4 nM, ribosomes 5 nM to 5 µM, 30 min; read-out: Apparent dissociation constant KDapp, direct equilibrium binding. As for the experimental part: The apparent dissociation constant of BODIPY-CAM (KDapp = 3.5 ± 0.9 µM) was determined by its direct equilibrium binding to E. coli 70S ribosomes (Figure S1B). A solution of BODIPY-CAM (4 nM) in the buffer containing 20 mM HEPES-KOH (pH 7.5), 50 mM NH4Cl, 10 mM Mg(CH3COO)2, 4 mM β-mercaptoethanol, and 0.05% Tween-20 was mixed with ribosomes in the range of concentrations from 5 nM to 5 μM, incubated for 30 min, and the values of fluorescence anisotropy were measured.
Chen C.- W. et al. Supplementary Inform ation P age | 6of 10 […]
Fi g u re S1. Binding of BODIPY-CAM to E. coli 70S ribosomes measu re d b y f lu orescence an isot rop y.
(A) Chemical structure of fluorescent analog of chloramphenicol BODIPY-CAM. (B) Equilibrium binding isotherm of BODIPY-CAM to E. coli 70S ribosomes.Non -linear regression anal ysis of obt ained data yi elded an apparent dissociation constant of BO D IP Y -CAM ( KDapp = 3.5 ± 0.9 µM).
(1 picture or pasted object on this page, not shown here)
A general note: Fluorescence polarisation rises when a labelled molecule tumbles more slowly, as on binding a larger partner.

For the next assay, the target named is ribosome. The arrangement: method as in PMID 4563072. Conditions: read-out: Dissociation constant by direct [14C]-CHL binding; cited from earlier work.

Structures are written as SMILES.

As to `O=C(O)CCCC[P+](c1ccccc1)(c1ccccc1)c1ccccc1.[Br-]` [C4-TPP, (4-Carboxybutyl)triphenyl-phosphonium bromide], in assay [1] (1.5 µL of C4-TPP 20 mM or CAM 2 mM), the “Bacterial cell growth inhibition (inhibition zone)” value is given as “inhibits bacterial cell growth”. For the same compound, the “Induction of fluorescent reporters (Katushka2S = ribosome stalling; RFP = DNA damage/SOS response)” value in assay [1] was “does not induce any of the two reporters”.

What is called IC50 is the midpoint of a concentration-inhibition curve. Lower therefore signals greater potency. Turning to `O=C(CCCC[P+](c1ccccc1)(c1ccccc1)c1ccccc1)N[C@H](CO)[C@H](O)c1ccc([N+](=O)[O-])cc1` [CAM-C4-TPP], in assay [1], the “Induction of fluorescent reporters (Katushka2S = ribosome stalling; RFP = DNA damage/SOS response)” value is on record as “the expression of the fluorescent protein Katushka2S, but not of RFP, was strongly activated”. Moreover, the Kd with E. coli 70S ribosomes [2] was found to be 600 ± 400 nM; in the assay on E. coli 70S ribosomes [3] it was 610 ± 70 nM. The “Fold higher affinity for the ribosome compared to parent CHL” value in the assay on E. coli 70S ribosomes [2] (both displacement assays (BODIPY-CAM and BODIPY-ERY)) is ~ 5 fold. Moreover, inhibition in assay [4] was half-maximal at 900 ± 200 nM (IC50). Besides, the “Concentration at which nearly complete inhibition of protein synthesis was observed” value in assay [4] was ~ 10 µM. For the same compound, in assay [4] (in vitro translation of firefly luciferase), the “Fold better IC50 compared to CHL” value is “more than 3 fold”. Besides, in assay [5], the “Drug-induced ribosome stalling sites (toe-printing)” value was “causes a significant portion of the ribosomes to stall at the initiator codons”.

For the compound `CC1=CC(C)=[N+]2C1=Cc1ccc(CCCCC(=O)NC(CO)C(O)c3ccc([N+](=O)[O-])cc3)n1[B-]2(F)F` (centres unmarked) [BODIPY-CAM], in the assay on E. coli 70S ribosomes [6], the Kd came to 3500 ± 900 nM.

As for `C[C@H]1COc2c(N3CCN(C)CC3)c(F)cc3c(=O)c(C(=O)O)cn1c23` [levofloxacin], the “Induction of fluorescent reporters (Katushka2S = ribosome stalling; RFP = DNA damage/SOS response)” value in assay [1] was “induce expression of Red Fluorescent Protein (RFP) reporter”.

Consider `CC[C@H]1OC(=O)[C@H](C)[C@@H](O[C@H]2C[C@@](C)(OC)[C@@H](O)[C@H](C)O2)[C@H](C)[C@@H](O[C@@H]2O[C@H](C)C[C@H](N(C)C)[C@H]2O)[C@](C)(O)C[C@@H](C)C(=O)[C@H](C)[C@@H](O)[C@]1(C)O` [erythromycin], for which the “Induction of fluorescent reporters (Katushka2S = ribosome stalling; RFP = DNA damage/SOS response)” value in assay [1] is on record as “induce expression of far-red fluorescent protein reporter Katushka2S”.

Consider `O=C(N[C@H](CO)[C@H](O)c1ccc([N+](=O)[O-])cc1)C(Cl)Cl` [CHL, chloramphenicol], for which, in assay [1], the “Induction of fluorescent reporters (Katushka2S = ribosome stalling; RFP = DNA damage/SOS response)” value is “induce expression of far-red fluorescent protein reporter Katushka2S”. Further, the Kd in the assay with E. coli 70S ribosomes [2] was 2600 ± 1500 nM; in the assay on E. coli 70S ribosomes [3] it was 2800 ± 500 nM; at ribosome, 2300 nM. The same compound returned an IC50 in assay [4] of 2800 ± 500 nM. The “Concentration at which nearly complete inhibition of protein synthesis was observed” value in assay [4] is ~ 10 µM. Moreover, in assay [5], the “Drug-induced ribosome stalling sites (toe-printing)” value is on record as “predominant ribosome stalling when the 6th serine (Ser6) or 4th alanine (Ala4) residues appeared in the penultimate position”.
